Columns and labels:
human cathepsin K = human cathepsin K (UniProt P43236); experiment: Cathepsin K Assay (hrbCat K); assay type: biochemical; conditions: human cathepsin K 0.4 nM, Z-Leu-Arg-AMC 8 μM, pH 5.5, 15 min preincubation; read-out: hrbCat K IP
Description: Cathepsin K Assay (hrbCat K)
(§1) Serial dilutions (⅓) from 500 μM down to 0.025 μM of test compounds were prepared in dimethyl sulfoxide (DMSO). Then 0.5 μL of DMSO from each dilution were added to 18.75 μL of assay buffer (MES, 50 mM (pH 5.5); EDTA, 2.5 mM; DTT, 2.5 mM and 10% DMSO) containing human cathepsin K (0.4 nM) in assay buffer solution. The assay solutions were mixed for 5-10 seconds on a shaker plate and incubated for 15 minutes at room temperature. Z-Leu-Arg-AMC (8 μM) in 6.25 μL of assay buffer was added to the assay solutions. Hydrolysis of the coumarin leaving group (AMC) was followed by spectrofluorometry (Exλ=360 nm; Emλ=460 nm) for 30 minutes. Percent of inhibition were calculated by fitting experimental values to standard mathematical model for dose response curve.

human cathepsin F = biological target: T1, human cathepsin F (Homo sapiens, UniProt Q9UBX1); experiment: Cathepsin F assay (hCat F); assay type: biochemical; conditions: human cathepsin F 10 nM, Z-Phe-Arg-AMC 8 μM, pH 5.5, 15 min preincubation; read-out: hCat F IP
T1 sequence (Q9UBX1 271-484): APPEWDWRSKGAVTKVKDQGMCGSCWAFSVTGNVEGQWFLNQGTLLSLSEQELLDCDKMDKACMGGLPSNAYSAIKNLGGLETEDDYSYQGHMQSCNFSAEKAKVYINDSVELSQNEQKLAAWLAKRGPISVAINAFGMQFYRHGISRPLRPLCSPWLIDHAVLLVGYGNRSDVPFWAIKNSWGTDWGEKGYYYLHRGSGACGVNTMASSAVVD
Description: Cathepsin F assay (hCat F)
as §1, with “F (10” for “K (0.4”, “Z-Phe-Arg-AMC” for “Z-Leu-Arg-AMC”, “(Exp, =360” for “(Exλ=360”, “EmX=460” for “Emλ=460”, “20” for “30”

| IC50 (human cathepsin K) | IC50 (human cathepsin F) | Compound |
| --- | --- | --- |
| 0.8 nM | 198 nM | CC(C#N)NC(=O)[C@@H]1CCCC[C@H]1c1oc(-c2ccc(F)cc2)nc1-c1ccc(N2CCS(=O)(=O)CC2)cc1 (single isomer, unassigned) [Example 122, (1R,2R)-N-((S or R)-1-cyanoethyl)-2-(4-(4-(1,1-dioxidothiomorpholino)phenyl)-2-(4-fluorophenyl)oxazol-5-yl)cyclohexanecarboxamide] |
| 2.13 nM | 472 nM | CC(C)C(C#N)NC(=O)[C@@H]1CCCC[C@H]1c1oc(-c2ccc(F)cc2)nc1-c1ccc(N2CCS(=O)(=O)CC2)cc1 (single isomer, unassigned) [Example 123, (1R,2R)-N-((S or R)-1-cyano-2-methylpropyl)-2-(4-(4-(1,1-dioxidothiomorpholino)phenyl)-2-(4-fluorophenyl)oxazol-5-yl)cyclohexanecarboxamide] |
| 1080 nM | ≥ 10000 nM | CC(C)C(C#N)NC(=O)[C@@H]1CCCC[C@H]1c1oc(-c2ccc(F)cc2)nc1-c1ccc(N2CCS(=O)(=O)CC2)cc1 (single isomer, unassigned) [Example 124, (1R,2R)-N-((R or S)-1-cyano-2-methylpropyl)-2-(4-(4-(1,1-dioxidothiomorpholino)phenyl)-2-(4-fluorophenyl)oxazol-5-yl)cyclohexanecarboxamide] |
| 0.69 nM | 104 nM | CCC(C#N)NC(=O)[C@@H]1CCCC[C@H]1c1oc(-c2ccc(F)cc2)nc1-c1ccc(N2CCS(=O)(=O)CC2)cc1 (single isomer, unassigned) [Example 125, (1R,2R)-N-((S or R)-1-cyanopropyl)-2-(4-(4-(1,1-dioxidothiomorpholino)phenyl)-2-(4-fluorophenyl)oxazol-5-yl)cyclohexanecarboxamide] |
| 14.6 nM | 9020 nM | CCC(C#N)NC(=O)[C@@H]1CCCC[C@H]1c1oc(-c2ccc(F)cc2)nc1-c1ccc(N2CCS(=O)(=O)CC2)cc1 (single isomer, unassigned) [Example 126, (1R,2R)-N-((R or S)-1-cyanopropyl)-2-(4-(4-(1,1-dioxidothiomorpholino)phenyl)-2-(4-fluorophenyl)oxazol-5-yl)cyclohexanecarboxamide] |
| 0.65 nM | 14 nM | N#CC(CC(F)(F)F)NC(=O)[C@@H]1CCCC[C@H]1c1oc(-c2ccc(F)cc2)nc1-c1ccc(N2CCS(=O)(=O)CC2)cc1 (single isomer, unassigned) [Example 131, (1R,2R)-N-((R or S)-1-cyano-3,3,3-trifluoropropyl)-2-(4-(4-(1,1-dioxidothiomorpholino)phenyl)-2-(4-fluorophenyl)oxazol-5-yl)cyclohexanecarboxamide] |
| 1.77 nM | 670 nM | N#CC(CC(F)(F)F)NC(=O)[C@@H]1CCCC[C@H]1c1oc(-c2ccc(F)cc2)nc1-c1ccc(N2CCS(=O)(=O)CC2)cc1 (single isomer, unassigned) [Example 132, (1R,2R)-N-((S or R)-1-cyano-3,3,3-trifluoropropyl)-2-(4-(4-(1,1-dioxidothiomorpholino)phenyl)-2-(4-fluorophenyl)oxazol-5-yl)cyclohexanecarboxamide] |
| 2.53 nM | 3140 nM | CC1CC1(C#N)NC(=O)[C@@H]1CCCC[C@H]1c1oc(-c2ccc(F)cc2)nc1-c1ccc(N2CCS(=O)(=O)CC2)cc1 (single isomer, unassigned) [Example 133, (1R,2R)-N-((2R or 2S)-1-cyano-2-methylcyclopropyl)-2-(4-(4-(1,1-dioxidothiomorpholino)phenyl)-2-(4-fluorophenyl)oxazol-5-yl)cyclohexanecarboxamide] |
| 2900 nM | ≥ 10000 nM | CC1CC1(C#N)NC(=O)[C@@H]1CCCC[C@H]1c1oc(-c2ccc(F)cc2)nc1-c1ccc(N2CCS(=O)(=O)CC2)cc1 (single isomer, unassigned) [Example 134, (1R,2R)-N-((2S or 2R)-1-cyano-2-methylcyclopropyl)-2-(4-(4-(1,1-dioxidothiomorpholino)phenyl)-2-(4-fluorophenyl)oxazol-5-yl)cyclohexanecarboxamide] |
| 1.06 nM | 446 nM | N#CC(CC(F)(F)F)NC(=O)[C@@H]1CC(F)(F)CC[C@H]1c1oc(C(F)(F)C(F)(F)F)nc1-c1ccc(C(=O)N2CCOCC2)cc1 (single isomer, unassigned) [Example 142, (1R,2R)-N-((R or S)-1-cyano-3,3,3-trifluoropropyl)-5,5 - difluoro-2-(4-(4-(morpholine-4-carbonyl)phenyl)-2-(perfluoroethyl)oxazol-5-yl)cyclohexanecarboxamide] |
| 0.54 nM | 14 nM | N#CC(CC(F)(F)F)NC(=O)[C@@H]1CC(F)(F)CC[C@H]1c1oc(C(F)(F)C(F)(F)F)nc1-c1ccc(C(=O)N2CCOCC2)cc1 (single isomer, unassigned) [Example 143, (1R,2R)-N-((S or R)-1-cyano-3,3,3-trifluoropropyl)-5,5-difluoro-2-(4-(4-(morpholine-4-carbonyl)phenyl)-2-(perfluoroethyl)oxazol-5-yl)cyclohexanecarboxamide] |
| 1520 nM | ≥ 10000 nM | N#CC(NC(=O)[C@@H]1CC(F)(F)CC[C@H]1c1oc(C(F)(F)C(F)(F)F)nc1-c1ccc(C(=O)N2CCOCC2)cc1)C1CCOCC1 (single isomer, unassigned) [Example 144, (1R,2R)-N-((R or S)-cyano(tetrahydro-2H-pyran-4-yl)methyl)-5,5-difluoro-2-(4-(4-(morpholine-4-carbonyl)phenyl)-2-(perfluoroethyl)oxazol-5-yl)cyclohcxanccarboxamide] |
| 3 nM | 1090 nM | N#CC(NC(=O)[C@@H]1CC(F)(F)CC[C@H]1c1oc(C(F)(F)C(F)(F)F)nc1-c1ccc(C(=O)N2CCOCC2)cc1)C1CCOCC1 (single isomer, unassigned) [Example 145, (1R,2R)-N-((S or R)-cyano(tetrahydro-2H-pyran-4-yl)methyl)-5,5-difluoro-2-(4-(4-(morpholine-4-carbonyl)phenyl)-2-(perfluoroethyl)oxazol-5-yl)cyclohcxanecarboxamide] |
| 9740 nM | ≥ 10000 nM | CC(C)(O)C(C#N)NC(=O)[C@@H]1CCCC[C@H]1c1oc(-c2ccc(F)cc2)nc1-c1ccc(N2CCS(=O)(=O)CC2)cc1 (single isomer, unassigned) [Example 158, (1R,2R)-N-((R or S)-1-cyano-2-hydroxy-2-methylpropyl)-2-(4-(4-(1,1-dioxidothiomorpholino)phenyl)-2-(4-fluorophenyl)oxazol-5-yl)cyclohexanecarboxamide] |
| 43.2 nM | 6860 nM | CC(C)(O)C(C#N)NC(=O)[C@@H]1CCCC[C@H]1c1oc(-c2ccc(F)cc2)nc1-c1ccc(N2CCS(=O)(=O)CC2)cc1 (single isomer, unassigned) [Example 159, (1R,2R)-N-((S or R)-1-cyano-2-hydroxy-2-methylpropyl)-2-(4-(4-(1,1-dioxidothiomorpholino)phenyl)-2-(4-fluorophenyl)oxazol-5-yl)cyclohexanecarboxamide] |
| 0.39 nM | 573 nM | N#CC1(NC(=O)[C@@H]2CCCC[C@H]2c2oc(-c3ccc(F)c(F)c3)nc2-c2ccc(N3CCS(=O)(=O)CC3)cc2)CC1 [Example 1, (1R,2R)—N-(1-Cyanocyclopropyl)-2-(2-(3,4-difluorophenyl)-4-(4-(1,1-dioxidothiomorpholino)phenyl)oxazol-5-yl)cyclohexanecarboxamide] |
| 1.02 nM | 666 nM | N#CC1(NC(=O)[C@@H]2CCCC[C@H]2c2oc(C(F)(F)C(F)(F)F)nc2-c2ccc(N3CCS(=O)(=O)CC3)cc2)CC1 [Example 3, (1R,2R)—N-(1-Cyanocyclopropyl)-2-(4-(4-(1,1-dioxidothiomorpholino)phenyl)-2-(perfluoroethyl)oxazol-5-yl)cyclohexanecarboxamide] |
| 6.37 nM | ≥ 10000 nM | N#CC1(NC(=O)[C@@H]2CCCC[C@H]2c2oc(N3CCC(F)(F)CC3)nc2-c2ccc(N3CCS(=O)(=O)CC3)cc2)CC1 [Example 4, (1R,2R)—N-(1-Cyanocyclopropyl)-2-(2-(4,4-difluoropiperidin-1-yl)-4-(4-(1,1-dioxidothiomorpholino)phenyl)oxazol-5-yl)cyclohexanecarboxamide] |
| 0.56 nM | 507 nM | N#CC1(NC(=O)[C@@H]2CCCC[C@H]2c2oc(-c3cccc(Cl)c3)nc2-c2ccc(N3CCS(=O)(=O)CC3)cc2)CC1 [Example 5, (1R,2R)-2-(2-(3-Chlorophenyl)-4-(4-thiomorpholino-1,1-dioxide-phenyl)oxazol-5-yl)-N-(1-cyanocyclopropyl)cyclohexanecarboxamide] |
